Measurements: article PMC5532286, “In silico, in vitro, X-ray crystallography, and integrated strategies for discovering spermidine synthase inhibitors for Chagas disease” (Scientific Reports, 2017)
Read-outs that look alike come from different tables or passages of the source.

Columns and labels:
[1] = biological target: T1, TcSpdSyn (Trypanosoma cruzi, UniProt Q4DA73); test: biochemical; format: biochemical; conditions: for Hill (4PL curve fitting parameter) / Max (4PL curve fitting parameter, inhibition%) / min (4PL curve fitting parameter, inhibition%) / LoggedX50 (4PL curve fitting parameter): Supplementary Table 3; for LoggedX50 (4PL curve fitting parameter): Log10 of X50
Description: To identify TcSpdSyn inhibitors, we performed an in vitro enzyme inhibition assay on 176 compounds sourced from the chemical compound library at Astellas Pharma.
The TcSpdSyn inhibition assay was performed essentially as previously[27] described. Briefly, the assay was an enzyme-coupled assay incorporating spermidine/spermine N(1)-acetyltransferase 1 (SSAT1). 7-Diethylamino-3-(4-maleimidylphenyl)-4-methylcoumarin (CPM) (cat. D-346, Thermo Fischer Scientific) was used to measure the coenzyme A produced by the SSAT1 reaction. […] The fluorescence signal was then detected in a plate reader (Paradigm, Molecular Devices Inc.) with excitation at 405 nm and emission at 530 nm. Each IC50 value was measured using eight different concentrations in quadruplicate. […] Compounds 1, 3, and 4 were used in their salt forms, whereas compound 2 was used in its free form. The corresponding salts were oxalic acid for compound 1 and HCl for compounds 3 and 4. These compounds were dissolved in dimethyl sulfoxide (DMSO), and the maximum final DMSO concentration in the assays was 1.3%.
Supplementary Figure 3. The fitting curve for IC50 calculation of the compounds on Table 1 (Compounds 1, 2, 3, 4, and 4MCHA correspond to (a), (b), (c), (d) and (e), respectively). The vertical line and horizontal axis's represent inhibition% for TcSpdSyn and compound concentration. The closed circles show the inhibition% measured at each dose. The error bars indicate the standard error of the inhibition% measured at each dose. For curve fitting, the following four paramter logoistic (4PL) model1 is used. The paramter […]

[2] = biological target: T1, TcSpdSyn; set-up: method as in PMID 26327378; conditions: cited from earlier work

T1 sequence (Q4DA73 entry or part of it): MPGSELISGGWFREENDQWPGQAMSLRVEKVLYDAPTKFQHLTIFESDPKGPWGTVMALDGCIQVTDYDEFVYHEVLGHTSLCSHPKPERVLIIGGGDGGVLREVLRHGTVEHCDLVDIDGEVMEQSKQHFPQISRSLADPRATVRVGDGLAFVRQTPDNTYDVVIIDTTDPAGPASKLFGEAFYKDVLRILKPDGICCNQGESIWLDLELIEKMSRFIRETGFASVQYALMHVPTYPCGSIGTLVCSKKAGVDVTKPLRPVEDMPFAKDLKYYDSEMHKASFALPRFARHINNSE

Structure (SMILES): CCOc1ccc2c(c1)c(CCN)cn2CC [Compound 3, 2-(5-Ethoxy-1-ethyl-1H-indol-3-yl)ethanamine]
- IC50 [1]: 113 µM
- Hill (4PL curve fitting parameter) [1]: 1.44
- Max (4PL curve fitting parameter, inhibition%) [1]: 100.00
- min (4PL curve fitting parameter, inhibition%) [1]: 0.00
- LoggedX50 (4PL curve fitting parameter) [1]: 2.05

Structure (SMILES): NCCc1ccccc1F [Compound 1, 2-(2-Fluorophenyl)ethanamine]
- IC50 [1]: 124 µM
- Hill (4PL curve fitting parameter) [1]: 0.90
- Max (4PL curve fitting parameter, inhibition%) [1]: 100.00
- min (4PL curve fitting parameter, inhibition%) [1]: 0.00
- LoggedX50 (4PL curve fitting parameter) [1]: 2.09

Structure (SMILES): O=c1nc(Nc2nc(O)nc(O)n2)sc2ccccc12 [Compound 2, 2-[(4,6-dihydroxy-1,3,5-triazin-2-yl)amino]-4H-1,3-benzothiazin-4-one]
- Hill (4PL curve fitting parameter) [1]: 1.27
- Max (4PL curve fitting parameter, inhibition%) [1]: 100.00
- min (4PL curve fitting parameter, inhibition%) [1]: 0.00
- LoggedX50 (4PL curve fitting parameter) [1]: 1.46
- IC50 ([1]; read-out: IC50 for TcSpdSyn): 28 µM

Structure (SMILES): NCCc1ccc(O)c(O)c1 [Compound 4, 4-(2-Aminoethyl)-1,2-benzenediol]
- Hill (4PL curve fitting parameter) [1]: 1.03
- Max (4PL curve fitting parameter, inhibition%) [1]: 100.00
- min (4PL curve fitting parameter, inhibition%) [1]: 0.00
- LoggedX50 (4PL curve fitting parameter) [1]: 1.82
- IC50 ([1]; read-out: IC50 for TcSpdSyn): 66 µM

Structure (SMILES): C[C@H]1CC[C@H](N)CC1 [Compound 4MCHA, trans-4-methylcyclohexylamine, reference compound]
- Hill (4PL curve fitting parameter) [1]: 1.01
- Max (4PL curve fitting parameter, inhibition%) [1]: 100.00
- min (4PL curve fitting parameter, inhibition%) [1]: 0.00
- LoggedX50 (4PL curve fitting parameter) [1]: 0.29
- IC50 ([1]; read-out: IC50 for TcSpdSyn): 1.9 µM
- IC50 [2]: 1.7 µM
